Data from article PMC11679793, “Structure-Activity Relationship Study of Majusculamide D: Overcoming Metabolic Instability and Severe Toxicity with a Fluoro Analogue” (Marine Drugs, 2024).

Columns and labels:
PANC-1 xenograft tumor = settings: for tumor inhibition rate (%): calculated from tumor weight, 1c, gemcitabine 20 mg/kg i.v.
Experimental: Furthermore, a xenografted murine subcutaneous tumor model was employed to evaluate the effects of majusculamide D and the optimized analogues 1c and 1n (Figure 1B). PANC1-bearing BALB/c nude mice were separated randomly, with a total of six mice in each group. Gemcitabine was chosen as the positive drug; the mice were then administered intravenous doses of 1c (5 mg/kg), 1n (5 mg/kg), 1a (5 mg/kg), and gemcitabine (20 mg/kg) every other day for 24 days.
A total of 4 × 10^6 PANC-1 cells suspended in 100 μL PBS were subcutaneously injected into the right shoulder region of BALB/c nude mice. When the tumor volume reached approximately 200 mm^3, the mice were euthanized, and the tumor tissues were harvested and designated as F1 generation. Tumor tissues were then cut into small cubes measuring approximately 3 × 3 × 3 mm, which were implanted into new BALB/c mice to propagate the tumors. This procedure was repeated to obtain the F2 generation of tumors. Finally, mice bearing F3 generation transplant tumors were used for drug treatment experiments. When the tumor volume reached approximately 80–100 mm^3, the mice were randomly divided into five groups (n = 6): control group, 5 mg/kg compound 1a group, 5 mg/kg compound 1c group, 5 mg/kg compound 1n group, and 20 mg/kg gemcitabine group. The compounds 1a, 1c, and 1n were dissolved in DMSO and then diluted with 0.9% physiological saline to achieve a final concentration of 0.5 mg/mL as the dosing concentration. Gemcitabine was dissolved directly in 0.9% saline to achieve a final concentration of 2 mg/mL as the dosing concentration. The compounds were administered intravenously every two days, alternating between the left and right tail veins to minimize vein damage. Injections were performed using ultra-fine syringes (30G needles) to reduce stress and ensure consistent delivery. The body weight and tumor volume of the mice were measured every four days. On day 24, the mice were euthanized, and the tumor weights were recorded. Tumor volume (V) was calculated using the formula: V = (ab^2)/2, with “a” representing the long diameter of the tumor and “b” representing the short diameter of the tumor. […] Tumor weight was used to calculate the tumor inhibition rate (Figure 1G).

PANC-1 cells = test: MTT cell activity assay (inhibitory activity against PANC-1 cells); assay type: cell-based; settings: Homo sapiens, PANC-1, 72 h, read-out: IC50 (nM), inhibitory activity against PANC-1 cells (Table 1), PANC-1 cells, 72 h incubation, mean ± SD, n = 3
Experimental: A total of 3000 PANC-1 cells were resuspended in 200 μL of culture medium and seeded into 96-well plates. After 24 h, the cells were treated with the compound and incubated for an additional 72 h. Following the incubation, 20 μL of 5 mg/mL MTT solution (Solarbio, China) was added to each well in the dark, and the cells were incubated for another 4 h. After incubation, the culture medium was discarded, and the wells were washed with PBS to remove any residual medium. Then, 200 μL of DMSO was added to each well to fully dissolve the formazan crystals, and the solution was mixed thoroughly. The absorbance was measured at 492 nm/570 nm, and the data were analyzed using GraphPad Prism.

[1] = Stability in mouse plasma assay; assay type: in vitro ADME; settings: 1 μM, 37 °C; for stability in mouse plasma compared to 1a (in words): 0-24 h
Experimental: Thaw plasma at room temperature and vortex for 3–5 s. Centrifuge at 3000 rpm at 10 °C for 10 min, and carefully transfer the supernatant to a new Eppendorf tube. Preincubate the plasma at 37 °C for 10 min. Prepare a series of test substances by adding 3 μL of the compound (100 μM) to 297 μL of plasma to achieve a final concentration of 1 μM, ensuring that the DMSO concentration in plasma is 1%. Propantheline bromide is used as a positive control. Incubate the mixture at 37 °C, and at specified time points (0, 1, 2, 4, and 24 h), take 50 μL of the plasma sample. To terminate the reaction, add 250 μL of acetonitrile (containing an internal standard), vortex thoroughly, and centrifuge at 16,000 rcf (4 °C) for 10 min. Collect 130 μL of the supernatant and dilute with 70 μL of pure water for LC-MS/MS analysis. The concentration of the test substances in plasma samples was determined using LC-MS/MS. The stability of the test substance in plasma was evaluated by measuring the remaining percentage of the compound in the plasma over time.

[2] = Serum biochemical analysis and H&E histology of liver and kidney; assay type: in vivo, mice; settings: 5 mg/kg every other day, 14 days
Experimental: In the biochemical and histological assays, 1n (5 mg/kg) and 1a (5 mg/kg) were administered to mice every other day, with the control group receiving an equivalent dose of saline. Following 14 days, mouse serum was collected for biochemical analysis, and organs were fixed for histological examination. […] In comparison, the liver tissues of the 1n-treated and control groups were normal.
Mice were euthanized, and liver and kidney tissues were collected and fixed in 10% neutral-buffered formalin for 48 h. The fixed tissues were processed for paraffin embedding, including dehydration in a graded ethanol series, clearing with xylene, and infiltration with molten paraffin wax. Paraffin blocks were sectioned into 4 μm slices using a rotary microtome, and the sections were mounted onto glass slides. The slides were dried at 60 °C for 4 h to ensure proper tissue adhesion. Following deparaffinization and rehydration, staining was performed according to the manufacturer’s instructions for the H&E staining kit (Solarbio, China). The sections were immersed in a hematoxylin solution for 3 min to stain the nuclei and then rinsed under running tap water for 1 minute to remove excess stain. Differentiation was achieved by briefly immersing the slides in a 1% hydrochloric acid-ethanol solution, followed by neutralization in 0.6% ammonia water until the nuclei appeared blue. Eosin staining was applied for 30 s to stain cytoplasmic and extracellular components, imparting a pink coloration. The slides were rinsed under running tap water for 30 s to remove excess eosin. Finally, the sections were dehydrated through a graded ethanol series, cleared with xylene, and coverslipped with a neutral resin mounting medium to preserve the stained tissues for microscopic examination.

Structure (SMILES) | tumor inhibition rate (%) (PANC-1 xenograft tumor; day 24, 1a, 1n 5 mg/kg) | IC50 (PANC-1 cells) [nM] | stability in mouse plasma compared to 1a (in words) [1] | impact on mouse body weight gain (PANC-1 xenograft tumor; 5 mg/kg i.v. every other day, 24 days) | mice dead in treated group (PANC-1 xenograft tumor; 5 mg/kg i.v., xenografted mouse model, six mice per group) | tumor weight (PANC-1 xenograft tumor; day 24, i.v. every other day, 1a, 1n 5 mg/kg, gemcitabine 20 mg/kg, mean ± SD) [g] | tumor volume (PANC-1 xenograft tumor; i.v. every other day for 24 days, 1a, 1n 5 mg/kg, gemcitabine 20 mg/kg, mean ± SD, n = 6) [mm^3] | remaining percentage in mouse plasma after 24 h ([1]; 24 h incubation) [%] | kidney tissue H&E histology [2] | liver tissue H&E histology [2] | serum ALT and AST levels compared to the control group ([2]; n = 3) | remaining percentage in mouse plasma after 2 h ([1]; 2 h incubation) [%]
CCCCC(C)CC(C)C(=O)N(C)C(Cc1ccc(OC)cc1)C(=O)NC(C(=O)N(C)C(C(=O)N1CC(O)CC1C(=O)N1C(=O)C=CC1C)C(C)C)C(C)OC(F)(F)F (stereo not drawn) [Compound 1c] | 40.4 | 2.07 ± 0.67 | significantly superior stability compared to 1a |  |  |  |  |  |  |  |  | 
CCCCCC[C@@H](C)C(=O)N(C)[C@@H](Cc1ccc(F)cc1)C(=O)N[C@H](C(=O)N(C)[C@H](C(=O)N1C[C@@H](O)C[C@H]1C(=O)N1C(=O)C=C[C@@H]1C)C(C)C)[C@@H](C)OC(F)(F)F [Compound 1n] | 51.5 | 3.83 | significantly superior stability compared to 1a | lesser impact on weight gain compared to 1a | no mouse dead | 0.542 ± 0.156 | 553.3 ± 166.8 | > 50 | no significant pathological differences | normal | no significant differences | 
CC(C)[N+](C)(CCOC(=O)C1c2ccccc2Oc2ccccc21)C(C)C [bromopropyl, Propantheline bromide, reference compound] |  |  |  |  |  |  |  |  |  |  |  | 0.90
